Results taken from US10730826B2, “Ketone inhibitors of lysine gingipain” (CORTEXYME, INC., priority 2016, dated 2020).

What was measured:
cathepsin Z = cathepsin Z (Homo sapiens (Human), UniProt Q9UBR2); assay: Cathepsin Z inhibition assay; type: biochemical; settings: Table 4; read-out: IC50 (nM) CatZ
Method: (§1) The capacities of compounds of the present invention to inhibit the activity of cathepsins B, H, K, L, and S were measured in similar assays. Boc-Leu-Arg-Arg-AMC (20 μM) in sodium acetate buffer (50 mM, pH 5.5) containing DTT (1 mM) and EDTA (2 mM) was used for the Cathepsin B assay. L-Arg-AMC (20 μM) in sodium acetate buffer (50 mM, pH 5.5) containing DTT (1 mM) and EDTA (2 mM) was used for the Cathepsin H assay. Z-Phe-Arg-AMC (10 μM) in HEPES buffer (50 mM, pH 7.4) containing DTT (2.5 mM) and EDTA (1 mM) was used for the Cathepsin K assay. Z-Phe-Arg-AMC (20 μM) in sodium acetate buffer (50 mM, pH 5.5) containing DTT (1 mM) and EDTA (2 mM) was used for the Cathepsin L assay. Z-Leu-Arg-AMC (10 μM) in sodium acetate buffer (25 mM, pH 4.5) containing DTT (2.5 mM) and NaCl (50 mM) was used for the Cathepsin S assay. The capacities of the compounds to inhibit the activity of cathepsins F, V, and Z were also measured.
(§2) Further assays to measure the inhibitory activity of compounds of the present invention against Kgp and cathepsins B, H, K, L, and S were conducted as described in Example 66. The capacities of the compounds to inhibit the activity of cathepsins F, V, and Z were also measured.

Cathepsin L = Cathepsin L (Homo sapiens (Human), UniProt P07711); assay: Cathepsin L inhibition assay; type: biochemical; settings: Table 4; read-out: IC50 (nM) CatL
Chain of Cathepsin L (P07711 114-333, species assumed): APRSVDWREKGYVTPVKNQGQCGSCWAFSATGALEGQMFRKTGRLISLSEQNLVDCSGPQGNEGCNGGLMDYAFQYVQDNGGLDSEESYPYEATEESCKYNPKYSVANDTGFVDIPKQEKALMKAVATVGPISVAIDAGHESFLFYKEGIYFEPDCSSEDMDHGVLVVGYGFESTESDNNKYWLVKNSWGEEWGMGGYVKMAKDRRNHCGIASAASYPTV
Method: as §1, §2

Cathepsin S = Cathepsin S (Homo sapiens (Human), UniProt P25774); assay: Cathepsin S inhibition assay; type: biochemical; settings: Table 4; read-out: IC50 (nM) CatS
Chain of Cathepsin S (P25774 115-331, species assumed): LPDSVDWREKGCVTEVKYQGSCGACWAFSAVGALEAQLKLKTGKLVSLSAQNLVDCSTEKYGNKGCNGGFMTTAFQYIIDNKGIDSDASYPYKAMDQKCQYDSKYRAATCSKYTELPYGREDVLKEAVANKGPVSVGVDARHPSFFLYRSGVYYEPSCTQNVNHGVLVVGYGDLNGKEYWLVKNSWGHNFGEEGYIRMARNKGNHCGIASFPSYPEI
Method: as §1, §2

Cathepsin B = Cathepsin B (Homo sapiens (Human), UniProt P07858); assay: Cathepsin B inhibition assay; type: biochemical; settings: Table 4; read-out: IC50 (nM) CatB
Method: as §1, §2

P. gingivalis W83 [1] = assay: Mouse periodontitis model, alveolar bone loss; type: in vivo, BALB/C mice; settings: week 5-10
Method: (§3) At the beginning of the study, eight week old BALB/C female mice received antibiotic in drinking water (sulfamethoxazolum 0.87 mg/mL, trimethoprimum 0.17 mg/mL) for 10 days to reduce microbiome protection from experiment infection. Experimental periodontitis was induced by ligature placement followed by multiple exposures to P. gingivalis. During the ligature procedure mice were anesthetized with an intraperitoneal injection of ketamine (200 mg/kg) and xylazine (10 mg/kg), and eyes were lubricated with ointment (Puralube Vet; Pharmaderm, Melville, N.Y.). Next, a 5-0 silk ligature (Roboz Surgical Instrument Co.) was tied around the upper maxillary left and right second molar. Sutures were applied and tied gently to prevent damage to the periodontal tissue.
(§4) Mice (n=8-10/arm) were infected for 6 weeks every other day. For infection, […]. of bacteria solution were applied topically to the buccal surface of the maxillae. For preparation of the bacteria, P. gingivalis W83 (ATCC, Rockville, Md.) was streaked on Tryptic Soy Broth (TSB) agar plates (5% sheep blood, supplemented with 0.5 mg/mL L-cysteine, 5 μg/mL hemin, and 0.5 μg/mL vitamin K) and grown under anaerobic conditions at 37° C. for 5-7 days. Samples were then inoculated in TSB with hemin, vitamin K and L-cysteine (TSB-HKC) until mid-log phase (OD600=0.5-0.7). Bacteria were washed in PBS and prepared at final concentration of 1×10^10 cells/mL in PBS+2% methylcellulose (CMC).
Vehicle-treated animals received PBS only. At 5 weeks, a subgroup of animals (n=16) were euthanized to gather baseline measurements before the start of treatment. After 10 weeks, mice were euthanized and the brain, serum, and maxillary tissues were harvested and frozen in liquid nitrogen.
Bone loss in the maxillae was measured ex vivo blinded using OsiriX MD software (PixmeoSARL, Bernex, Switzerland). […] The distance between the cementoenamel junction (CEJ) and the alveolar bone crest (ABC) was measured from the CEJ to a reference line on the ABC which was placed perpendicular to the superficial root one each side of the second molar. […]

Cathepsin H = Cathepsin H (Homo sapiens (Human), UniProt P09668); assay: Cathepsin H inhibition assay; type: biochemical; settings: Table 4; read-out: IC50 (nM) CatH
Chain of Cathepsin H (P09668 98-335, species assumed): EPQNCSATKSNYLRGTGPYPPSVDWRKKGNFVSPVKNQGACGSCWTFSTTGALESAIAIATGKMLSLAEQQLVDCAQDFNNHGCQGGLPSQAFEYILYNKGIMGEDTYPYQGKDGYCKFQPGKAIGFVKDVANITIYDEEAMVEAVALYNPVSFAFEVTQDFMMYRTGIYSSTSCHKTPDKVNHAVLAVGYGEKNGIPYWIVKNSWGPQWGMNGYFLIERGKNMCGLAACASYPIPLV
Method: as §1, §2

P. gingivalis W83 [2] = assay: Mouse periodontitis model, GAD67 positive interneurons in the dentate gyrus; type: in vivo, BALB/C mice; settings: 10 weeks, infected treated mice vs mock-infected
Method: as §3
as §4, with “Samples were then inoculated in TSB with hemin, vitamin K and L-cysteine (TSB-HKC) until mid-log phase (OD600=0.5-0.7). Bacteria were washed in PBS and prepared at final concentration of 1×10^10 cells/mL in PBS+2% methylcellulose (CMC).” left out
Quantification of GAD67 positive interneurons was performed with CellSens 1.5. […] The number of cells on every 40th section through the hippocampus was counted. […]

arginine gingipain, Rgp = assay: Inhibition of arginine gingipain; type: biochemical, Porphyromonas gingivalis; settings: 100 nM

Chain of cathepsin Z (Q9UBR2 62-303): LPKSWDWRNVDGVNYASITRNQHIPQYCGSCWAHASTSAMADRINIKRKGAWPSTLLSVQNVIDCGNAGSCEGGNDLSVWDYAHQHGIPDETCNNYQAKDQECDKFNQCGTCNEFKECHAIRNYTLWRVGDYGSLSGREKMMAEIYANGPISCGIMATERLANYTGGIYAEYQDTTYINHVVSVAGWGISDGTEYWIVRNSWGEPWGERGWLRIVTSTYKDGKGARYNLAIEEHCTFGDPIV

## NCCCC[C@H](NC(=O)C1CCCC1)C(=O)COc1c(F)ccc(F)c1F [Compound 1, (S)—N-(7-amino-2-oxo-1-(2,3,6-trifluorophenoxy)heptan-3-yl)cyclopentanecarboxamide]
Cathepsin Z
  IC50: > 10000 nM
Cathepsin L
  IC50: 4680 nM
Cathepsin S
  IC50: > 10000 nM
Cathepsin B
  IC50: 380 nM
P. gingivalis W83 [1]; 3 mg/kg oral b.i.d.
  alveolar bone loss: trended to improvement but did not result in significant improvement
P. gingivalis W83 [1]; 10 mg/kg oral b.i.d.
  alveolar bone loss: improved
P. gingivalis W83 [1]; 30 mg/kg oral b.i.d.
  alveolar bone loss: improved
Cathepsin H
  IC50: 560 nM
P. gingivalis W83 [2]
  GAD67 positive interneurons in the dentate gyrus: at the same level as the GAD67^+ cells in the mock-infected mice
Arginine gingipain, Rgp
  inhibition of arginine gingipain, Rgp: does not inhibit
